{"source": "paper PMC9182347", "about": "“α-Glucosidase, α-Amylase and Antioxidant Evaluations of Isolated Bioactives from Wild Strawberry” (Molecules, 2022)", "key": {"α-amylase": {"test_system": "α-amylase", "assay": "In vitro α-amylase inhibition", "assay_type": "biochemical", "conditions": "for α-Amylase Percent Inhibition: mean ± SEM, n = 3", "experimental": "The amylase solution was prepared in phosphate buffer. The solutions of the F. indica and isolated compounds (62.50 to 1000 µg/mL) were added to the amylase solution and allowed to react. After reaction completion, starch solution was added and incubated as per the standard method. Afterwards, a solution of dinitro-salicylic acid was added to both test and control groups. The final solutions were heated for 3 min in boiling water and the absorbances were measured at […]. The experiments were performed in triplicates and percent inhibitions were calculated.\n(§1) The half inhibitory concentration (IC50) was calculated using Microsoft Excel program as per our previously reported method."}, "α-glucosidase": {"molecular_target": "α-glucosidase (Saccharomyces cerevisiae, UniProt P53341)", "sequence (P53341 whole entry)": "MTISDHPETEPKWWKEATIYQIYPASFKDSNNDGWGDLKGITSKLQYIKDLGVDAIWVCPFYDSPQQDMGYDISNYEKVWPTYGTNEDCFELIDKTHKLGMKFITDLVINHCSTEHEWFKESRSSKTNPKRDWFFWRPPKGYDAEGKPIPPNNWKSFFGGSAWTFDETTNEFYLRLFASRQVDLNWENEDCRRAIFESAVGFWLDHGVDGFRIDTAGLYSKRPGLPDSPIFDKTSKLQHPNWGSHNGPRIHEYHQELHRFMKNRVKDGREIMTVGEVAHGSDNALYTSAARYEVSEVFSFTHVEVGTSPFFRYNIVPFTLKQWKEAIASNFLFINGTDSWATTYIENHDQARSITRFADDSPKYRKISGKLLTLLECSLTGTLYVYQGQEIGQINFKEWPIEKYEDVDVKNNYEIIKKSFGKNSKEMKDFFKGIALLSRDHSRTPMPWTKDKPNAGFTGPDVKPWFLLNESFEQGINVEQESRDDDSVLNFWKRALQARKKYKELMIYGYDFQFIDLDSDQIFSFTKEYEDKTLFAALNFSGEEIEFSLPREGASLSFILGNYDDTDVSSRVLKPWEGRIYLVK", "assay_type": "biochemical", "experimental": "The α-glucosidase solution (120 μL) of 0.50 U/mL in 0.10 M phosphate buffer (pH 6.90) was prepared and p-nitrophenyl-α-D-glucopyranoside (5 mM) was added as substrate solution. Different concentrations ranging from 62.50 µg/mL to 1000 µg/mL of the crude extracts, semi-purified fractions and isolated compounds of F. indica were prepared accordingly. The plant’s samples (extracts, semi-purified and purified compounds) were mixed with the solutions of enzyme as per the experiment and were incubated at 37 °C.\nAfter initial incubation for 15 min, 20 μL p-nitrophenyl-α-D-glucopyranoside solution was mixed and was again incubated in the same way. Finally, 80 μL solution of sod. carbonate (0.20 M) was added to finish up the reaction. The solution containing all the substrates except α-glucosidase served as a blank. The absorbances of experiments were measured at 405 nm. The experiments were repeated 3 times and the calculations were made as per the standard protocols.\nas §1"}, "[1]": {"assay": "DPPH free radicals scavenging assay", "conditions": "for DPPH Percent Inhibition: mean ± SEM, n = 3", "experimental": "The antioxidant activity was carried out for F. indica extracts, semi-purified ethyl acetate fractions and isolated compounds using DPPH free radicals. DPPH solution was prepared (24 mg/100 mL of methanol). Stock solutions (1 mg/mL) of F. indica extracts and isolated compounds were prepared in methanol and then diluted to 1000, 500, 250, 125, 62.5 μg/mL. Sample and DPPH solutions were mixed in a ratio of 1:1 and were incubated at 23 °C for 30 min. Finally, absorbance was measured at 517 nm using UV spectrophotometer (Thermo electron corporation, Waltham, MA, USA). Ascorbic acid was used as positive control. Percent radical scavenging activity was measured using the reported equations [61].\nas §1"}}, "note": "Values joined by “and” are separate entries in the source; they are usually repeats but may differ in a detail not shown here. Identical values can stand only once.", "data": [{"compound": "C[C@H]1O[C@H](O[C@H]2[C@H](O)[C@@H](O)[C@@H](O[C@H]3[C@H](O)[C@@H](O)C(O)O[C@@H]3CO)O[C@@H]2CO)[C@H](O)[C@@H](O)[C@@H]1N[C@H]1C=C(CO)[C@@H](O)[C@H](O)[C@H]1O", "note": "(stereo partly shown) [Acarbose, acarbose]", "values": [{"measurement": "α-Amylase Percent Inhibition", "setting": "α-amylase; 62.5 μg/mL", "value": "63.26 ± 0.93", "unit": "%"}, {"measurement": "α-Amylase Percent Inhibition", "setting": "α-amylase; 125 μg/mL", "value": "67.05 ± 0.49", "unit": "%"}, {"measurement": "α-Amylase Percent Inhibition", "setting": "α-amylase; 250 μg/mL", "value": "71.56 ± 0.49", "unit": "%"}, {"measurement": "α-Amylase Percent Inhibition", "setting": "α-amylase; 500 μg/mL", "value": "74.03 ± 0.64", "unit": "%"}, {"measurement": "α-Amylase Percent Inhibition", "setting": "α-amylase; 1000 μg/mL", "value": "82.43 ± 0.52", "unit": "%"}, {"measurement": "α-Glucosidase Percent Inhibition", "setting": "α-glucosidase", "value": "96.00 ± 0.30% and 90.61 ± 0.43% and 84.03 ± 0.86% and 77.58 ± 0.77% and 71.48 ± 0.74%"}]}, {"compound": "O=C1O[C@H]([C@@H](O)CO)C(O)=C1O", "note": "[Ascorbic acid]", "values": [{"measurement": "DPPH IC50", "setting": "[1]", "value": 4.98, "unit": "µg/mL"}, {"measurement": "DPPH Percent Inhibition", "setting": "[1]; 62.5 μg/mL", "value": "75.45 ± 0.90", "unit": "%"}, {"measurement": "DPPH Percent Inhibition", "setting": "[1]; 125 μg/mL", "value": "77.61 ± 0.43", "unit": "%"}, {"measurement": "DPPH Percent Inhibition", "setting": "[1]; 250 μg/mL", "value": "82.40 ± 0.20", "unit": "%"}, {"measurement": "DPPH Percent Inhibition", "setting": "[1]; 500 μg/mL", "value": "87.08 ± 0.47", "unit": "%"}, {"measurement": "DPPH Percent Inhibition", "setting": "[1]; 1000 μg/mL", "value": "91.90 ± 0.96", "unit": "%"}]}, {"compound": "COc1c(O)c(C)c(Cl)c(OC)c1Cl", "note": "[Compound 1, 2,4-dichloro-6-hydroxy-3,5-dimethoxytoluene]", "values": [{"measurement": "α-Amylase IC50", "setting": "α-amylase", "value": "15.03 µg/mL and 17.65 µg/mL"}, {"measurement": "DPPH IC50", "setting": "[1]", "value": 7.62, "unit": "µg/mL"}]}, {"compound": "CC(C)=CC(=O)CC(C)c1ccc(C)cc1", "note": "(stereo not shown) [Compound 2, 2-methyl-6-(4-methylphenyl)-2-hepten-4-one]", "values": [{"measurement": "α-Amylase IC50", "setting": "α-amylase", "value": 16.56, "unit": "µg/mL"}, {"measurement": "DPPH IC50", "setting": "[1]", "value": 14.30, "unit": "µg/mL"}]}]}
